What all share (assay type): in vivo, rat
The subject of assay [1] is Long Evans (LE) rats. The assay is described as follows: Object in Place (OiP) spontaneous exploration task after head-only irradiation. From the text:
(§1) Ten (10) week old Long Evans (LE) rats (Crl:LE, Strain Code: 006; Charles River) were divided randomly into three groups (n=16/group):
(§2) Controls (Con) received oral gavage (vehicle only) and sham radiation.
(§3) Radiation recipients with no drug (IRR) administered oral gavage (vehicle only) and 27 Gy head-only fractionated radiation.
(§4) Radiation recipients having administered drug (IRR+NSI-189) received the compound of formula (2) wherein R^1=amyl as the phosphate salt by oral gavage. Drug was administered at 30 mg/kg (amount based exclusive of phosphate) and 27 Gy head-only fractionated radiation administered as in the IRR group. Rats in this group were administered NSI-189 in sterile vehicle (normal saline) as a 1× solution (15 mg/ml) starting 24 hours after the final dose of radiation and daily thereafter for 30 days. Sterile gavage needles with protected tips were used and the drug administered for less than a minute. […]
(§5) Rats were subjected to cognitive testing using spontaneous exploration tasks outlined below 1 week after termination of oral gavage (5 weeks post irradiation) over the course of 3 weeks. […] All data were collected using Noldus Ethovision v8.5 and later hand scored by a technician blind to the treatment groups. […]

The test system of assay [2] is Long Evans (LE) rats. The experiment in a line: Novel Place Recognition (NPR) spontaneous exploration task after head-only irradiation.
From the text: as §1, §2, §3, §4, §5

The subject of assay [3] is proliferating (BrdU+) cells present in the hippocampal dentate gyrus. The assay is described as follows: Neurogenesis: BrdU and BrdU/NeuN immunohistochemical labeling after head-only irradiation. The following applies: irradiated rats, 30 mg/kg oral, 30 days. How it is done:
as §1
Radiation recipients having administered drug (IRR+NSI-189) received the compound of formula (2) wherein R^1=amyl as the phosphate salt by oral gavage. Drug was administered at 30 mg/kg (amount based exclusive of phosphate) and 27 Gy head-only fractionated radiation administered as in the IRR group. Rats in this group were administered NSI-189 in sterile vehicle (normal saline) as a 1× solution (15 mg/ml) starting 24 hours after the final dose of radiation and daily thereafter for 30 days. Sterile gavage needles with protected tips were used and the drug administered for less than a minute.
For IRR and IRR+NSI-189, rats were anesthetized [2.5% (vol/vol) isoflurane/oxygen], placed ventrally on the treatment table (X-RAD 320 irradiator; Precision X-Ray) without restraint, and positioned under a collimated (1.0 cm^2 diameter) beam for head-only radiation delivered at a dose rate of 1.0 Gy/min. Fractionation of 27 Gy was delivered over 3 separate doses of […] that were administered 48 hours apart. […]
Remaining animals that were not used for Golgi-Cox staining (n=12/group) were given a barbiturate overdose and were perfused/fixated using 4% paraformaldehyde and tissue removed. Tissue was analyzed by immunohistochemistry.

The test system of assay [4] is Long Evans (LE) rats. The assay is described as follows: Novel Object Recognition (NOR) spontaneous exploration task after head-only irradiation.
From the text: as §1, §2, §3, §4, §5

In assay [5] the test system is Long Evans (LE) rats. The assay is described as follows: Temporal Order (TO) spontaneous exploration task after head-only irradiation.
From the text: as §1, §2, §3, §4, §5

[6] abbreviates: IRR lower than IRR+NSI-189 (P<0.05), 30 mg/kg oral, 30 days, 27 Gy.

Take `CC(C)CCNc1ncccc1C(=O)N1CCN(Cc2ccccc2)CC1` [NSI-189]: the “OiP exploration ratio of IRR+NSI-189 compared with Con (statistics, in words)” value in assay [1] (setting [6]) was “showed no significant differences”. Further, the “Exploration Ratio mean (OiP)” value in assay [1] (rats, 27 Gy head-only fractionated radiation, 30 mg/kg oral gavage daily for 30 days) is “mean = 64.60”. Further, the “NPR exploration ratio of IRR+NSI-189 compared with Con (statistics, in words)” value in assay [2] (setting [6]) is recorded as “did not differ significantly from Con”. In addition, the “Exploration Ratio mean (NPR)” value in assay [2] (rats, 27 Gy head-only fractionated radiation, 30 mg/kg oral gavage daily for 30 days starting 24 hours after final radiation dose, tested 5 weeks post irradiation, 1 hour retention) was “mean = 60.69”. Besides, the “yield of BrdU+/NeuN+ cells (mature neurons) in the hippocampal dentate gyrus” value in assay [3] (dual immunohistochemical labeling) is reported as “returned the yield of BrdU^+/NeuN^+ cells to pre-irradiation levels”. In assay [3] (radiation alone gave significant (P<0.05) reduction), the “number of proliferating (BrdU+) cells in the hippocampal dentate gyrus” value is on record as “returned to pre-irradiation levels”. Further, in assay [4] (IRR lower than IRR+NSI-189 (P<0.01), 30 mg/kg oral, 30 days, 27 Gy), the “NOR exploration ratio of IRR+NSI-189 compared with Con (statistics, in words)” value is “statistically indistinguishable”. Further, the “Exploration Ratio mean (NOR)” value in assay [4] (rats, 27 Gy head-only fractionated radiation, 30 mg/kg oral gavage daily for 30 days, 5 min retention interval) is “mean = 71.28”. Also, the “TO exploration ratio of IRR+NSI-189 compared with Con (statistics, in words)” value in assay [5] (30 mg/kg oral, 30 days, 27 Gy) was “did not differ statistically”. Moreover, the “Exploration Ratio mean (TO)” value in assay [5] (rats, 27 Gy head-only fractionated radiation, 30 mg/kg oral gavage daily for 30 days, object sets 3 hours apart, test after additional 1 hour) is “mean = 67.95”.

Values taken from patent publication US20180104240A1, “AMELIORATION OF RADIATION-INDUCED COGNITIVE DYSFUNCTION” (NEURALSTEM, INC., priority 2016, published 2018).
